Reference: PubChem BioAssay (NCI)
Values joined by “and” are separate entries in the source; they are usually repeats but may differ in a detail not shown here. Equal values may be shown once.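 Here, GI50 denotes the concentration required for 50% inhibition of growth. The concentration for full growth arrest is given as TGI.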

How the values were obtained:
Test in all cases: NCI tumour cell line growth inhibition, 384-well format
HL-60(TB) leukemia = test system: HL-60(TB) leukemia
BT-549 breast = test system: BT-549 breast
LOX IMVI melanoma = test system: LOX IMVI melanoma
CCRF-CEM leukemia = test system: CCRF-CEM leukemia
CAKI-1 renal = test system: CAKI-1 renal
786-0 renal = test system: 786-0 renal
SF-295 CNS = test system: SF-295 CNS
PC-3 prostate = test system: PC-3 prostate
TK-10 renal = test system: TK-10 renal
UACC-257 melanoma = test system: UACC-257 melanoma
KM12 colon = test system: KM12 colon
UO-31 renal = test system: UO-31 renal
HOP-62 NSCLC = test system: HOP-62 NSCLC
T-47D breast = test system: T-47D breast
RXF 393 renal = test system: RXF 393 renal
MOLT-4 leukemia = test system: MOLT-4 leukemia
K-562 leukemia = test system: K-562 leukemia
MALME-3M melanoma = test system: MALME-3M melanoma
HT29 colon = test system: HT29 colon
MCF7 breast = test system: MCF7 breast
MDA-MB-468 breast = test system: MDA-MB-468 breast
OVCAR-3 ovarian = test system: OVCAR-3 ovarian
SF-539 CNS = test system: SF-539 CNS
SR leukemia = test system: SR leukemia
NCI-H460 NSCLC = test system: NCI-H460 NSCLC
IGROV1 ovarian = test system: IGROV1 ovarian
MDA-MB-435 melanoma = test system: MDA-MB-435 melanoma
NCI-H23 lung = test system: NCI-H23 lung
SNB-75 CNS = test system: SNB-75 CNS
HS 578T breast = test system: HS 578T breast
MDA-MB-231 breast = test system: MDA-MB-231 breast
SF-268 CNS = test system: SF-268 CNS
DU-145 prostate = test system: DU-145 prostate
NCI-H226 lung = test system: NCI-H226 lung
SW-620 colon = test system: SW-620 colon
OVCAR-5 ovarian = test system: OVCAR-5 ovarian
ACHN renal = test system: ACHN renal
SK-MEL-28 melanoma = test system: SK-MEL-28 melanoma
SK-OV-3 ovarian = test system: SK-OV-3 ovarian
RPMI-8226 leukemia = test system: RPMI-8226 leukemia
OVCAR-8 ovarian = test system: OVCAR-8 ovarian
OVCAR-4 ovarian = test system: OVCAR-4 ovarian
A498 renal = test system: A498 renal
NCI-H322M lung = test system: NCI-H322M lung
NCI-H522 lung = test system: NCI-H522 lung
COLO 205 colon = test system: COLO 205 colon
UACC-62 melanoma = test system: UACC-62 melanoma
A549 NSCLC = test system: A549 NSCLC
HOP-92 NSCLC = test system: HOP-92 NSCLC
NCI/ADR-RES ovarian = test system: NCI/ADR-RES ovarian
EKVX NSCLC = test system: EKVX NSCLC
SNB-19 CNS = test system: SNB-19 CNS
SK-MEL-5 melanoma = test system: SK-MEL-5 melanoma
HCC-2998 colon = test system: HCC-2998 colon
M14 melanoma = test system: M14 melanoma
SN12C renal = test system: SN12C renal
HCT-15 colon = test system: HCT-15 colon
U251 glioblastoma = test system: U251 glioblastoma
SK-MEL-2 melanoma = test system: SK-MEL-2 melanoma
HCT-116 colon = test system: HCT-116 colon

## CN1CCN(C(=O)COc2ccc(C34CC5CC(CC(C5)C3)C4)cc2)CC1
HL-60(TB) leukemia
  GI50: 1.8 µM
  TGI: 3.21 µM
BT-549 breast
  GI50: 3.48 µM
  TGI: 16 µM
LOX IMVI melanoma
  GI50: 2.31 µM
  TGI: 5.31 µM
CCRF-CEM leukemia
  GI50: 2.03 µM
  TGI: 4.43 µM
CAKI-1 renal
  GI50: 2.22 µM
  TGI: 4.56 µM
786-0 renal
  GI50: 1.74 µM
  TGI: 3.24 µM
SF-295 CNS
  GI50: 2.85 µM
  TGI: 8.18 µM
PC-3 prostate
  GI50: 8.05 µM
  TGI: 20.6 µM
TK-10 renal
  GI50: 9.41 µM
  TGI: 21.3 µM
UACC-257 melanoma
  GI50: 2.19 µM
  TGI: 4.32 µM
KM12 colon
  GI50: 2.18 µM
  TGI: 4.77 µM
UO-31 renal
  GI50: 11.3 µM
  TGI: 23.9 µM
HOP-62 NSCLC
  GI50: 4.84 µM
  TGI: 16.5 µM
T-47D breast
  GI50: 2.66 µM
  TGI: 10.6 µM
RXF 393 renal
  GI50: 1.85 µM
  TGI: 4.12 µM
MOLT-4 leukemia
  GI50: 1.79 µM
  TGI: 4.27 µM
K-562 leukemia
  GI50: 1.64 µM
  TGI: 3.17 µM
MALME-3M melanoma
  GI50: 1.7 µM
  TGI: 3.19 µM
HT29 colon
  GI50: 1.72 µM
  TGI: 3.31 µM
MCF7 breast
  GI50: 2.08 µM
  TGI: 6.06 µM
MDA-MB-468 breast
  GI50: 1.93 µM
  TGI: 3.7 µM
OVCAR-3 ovarian
  GI50: 7.07 µM
  TGI: 19.7 µM
SF-539 CNS
  GI50: 3.98 µM
  TGI: 13.8 µM
SR leukemia
  GI50: 1.68 µM
  TGI: 3.08 µM
NCI-H460 NSCLC
  GI50: 2.48 µM
  TGI: 5.79 µM
IGROV1 ovarian
  GI50: 12.7 µM
  TGI: 25.3 µM
MDA-MB-435 melanoma
  GI50: 3.94 µM
  TGI: 13.4 µM
NCI-H23 lung
  GI50: 4.5 µM
  TGI: 15.9 µM
SNB-75 CNS
  GI50: 11.9 µM
  TGI: 24.3 µM
HS 578T breast
  GI50: 3.17 µM
  TGI: 10.6 µM
MDA-MB-231 breast
  GI50: 6.09 µM
  TGI: 18.5 µM
SF-268 CNS
  GI50: 4.74 µM
  TGI: 16.2 µM
DU-145 prostate
  GI50: 12.1 µM
  TGI: 24.6 µM
NCI-H226 lung
  GI50: 6.3 µM
  TGI: 19.3 µM
SW-620 colon
  GI50: 1.78 µM
  TGI: 3.31 µM
OVCAR-5 ovarian
  GI50: 5.11 µM
  TGI: 16.6 µM
ACHN renal
  GI50: 7.11 µM
  TGI: 19.6 µM
SK-MEL-28 melanoma
  GI50: 1.74 µM
  TGI: 3.19 µM
SK-OV-3 ovarian
  GI50: 7.12 µM
  TGI: 19.8 µM
RPMI-8226 leukemia
  GI50: 1.7 µM
  TGI: 3.22 µM
OVCAR-8 ovarian
  GI50: 10.3 µM
  TGI: 22.1 µM
OVCAR-4 ovarian
  GI50: 8.56 µM
  TGI: 20.7 µM
A498 renal
  GI50: 1.62 µM
  TGI: 3.12 µM
NCI-H322M lung
  GI50: 3.81 µM
  TGI: 13.5 µM
NCI-H522 lung
  GI50: 8.25 µM
  TGI: 20.5 µM
COLO 205 colon
  GI50: 1.79 µM
  TGI: 3.21 µM
UACC-62 melanoma
  GI50: 1.81 µM
  TGI: 3.32 µM
A549 NSCLC
  GI50: 5.49 µM
  TGI: 17.8 µM
HOP-92 NSCLC
  GI50: 3.58 µM
  TGI: 15.7 µM
NCI/ADR-RES ovarian
  GI50: 7.51 µM
  TGI: 20.1 µM
EKVX NSCLC
  GI50: 11.4 µM
  TGI: 23.6 µM
SNB-19 CNS
  GI50: 10.5 µM
  TGI: 22.3 µM
SK-MEL-5 melanoma
  GI50: 1.85 µM
  TGI: 3.37 µM
HCC-2998 colon
  GI50: 1.56 µM
  TGI: 3.11 µM
M14 melanoma
  GI50: 1.87 µM
  TGI: 3.41 µM
SN12C renal
  GI50: 11.8 µM
  TGI: 24.2 µM
HCT-15 colon
  GI50: 1.84 µM
  TGI: 3.37 µM

## Nc1nc2[nH]cc(CCc3ccc(C(=O)N[C@@H](CCC(=O)O)C(=O)O)cc3)c2c(=O)[nH]1
HL-60(TB) leukemia
  GI50: 0.0148 µM and 0.0226 µM
  TGI: 0.0305 µM and 0.0575 µM
BT-549 breast
  GI50: 0.194 µM and 0.0376 µM
LOX IMVI melanoma
  GI50: 0.0883 µM
  TGI: > 100 µM
CCRF-CEM leukemia
  GI50: 0.0213 µM
  TGI: 0.0733 µM
CAKI-1 renal
  GI50: 0.193 µM and 0.179 µM
  TGI: 50 µM and > 100 µM
786-0 renal
  GI50: 0.0335 µM and 0.0305 µM
  TGI: 50 µM and 8.17 µM
U251 glioblastoma
  GI50: 0.243 µM and 0.249 µM
SF-295 CNS
  GI50: 0.0316 µM and 0.0756 µM
PC-3 prostate
  GI50: 0.0643 µM
  TGI: > 100 µM
TK-10 renal
  GI50: 0.245 µM and 0.76 µM
  TGI: 50 µM and > 100 µM
KM12 colon
  GI50: > 100 µM
  TGI: > 100 µM
UO-31 renal
  GI50: 0.195 µM and 0.0334 µM
HOP-62 NSCLC
  GI50: 0.307 µM and 0.181 µM
  TGI: 50 µM and > 100 µM
T-47D breast
  GI50: > 100 µM
  TGI: > 100 µM
RXF 393 renal
  GI50: 0.0248 µM
  TGI: 0.0583 µM
MOLT-4 leukemia
  GI50: 0.0121 µM and 0.0192 µM
  TGI: 0.0236 µM and 0.0338 µM
K-562 leukemia
  GI50: 0.0118 µM
  TGI: 0.0248 µM
MALME-3M melanoma
  GI50: 3.12 µM and 0.728 µM
  TGI: 50 µM and > 100 µM
HT29 colon
  GI50: 0.257 µM and 0.089 µM
  TGI: 50 µM and > 100 µM
MCF7 breast
  GI50: 0.0471 µM and 0.0339 µM
  TGI: 50 µM and > 100 µM
MDA-MB-468 breast
  GI50: 0.131 µM and 0.322 µM
SK-MEL-2 melanoma
  GI50: > 50 µM
  TGI: > 50 µM
OVCAR-3 ovarian
  GI50: 0.336 µM and 0.286 µM
  TGI: 50 µM and > 100 µM
SF-539 CNS
  GI50: 0.0721 µM and 0.0419 µM
SR leukemia
  GI50: 0.0331 µM and 0.0388 µM
NCI-H460 NSCLC
  GI50: 0.12 µM and 0.0792 µM
  TGI: 50 µM and > 100 µM
IGROV1 ovarian
  GI50: > 50 µM and 29.8 µM
  TGI: > 100 µM
MDA-MB-435 melanoma
  TGI: 50 µM and > 100 µM
NCI-H23 lung
  GI50: > 50 µM and 9.32 µM
  TGI: > 100 µM
SNB-75 CNS
  GI50: 0.0782 µM and 0.121 µM
HS 578T breast
  GI50: 0.254 µM and 0.276 µM
  TGI: 50 µM and > 100 µM
MDA-MB-231 breast
  GI50: 0.234 µM and 0.374 µM
  TGI: 1.12 µM and 1.63 µM
SF-268 CNS
  GI50: 0.0458 µM and 0.0334 µM
  TGI: 0.264 µM and 0.0962 µM
DU-145 prostate
  GI50: 0.202 µM and 0.146 µM
  TGI: 50 µM and > 100 µM
NCI-H226 lung
  GI50: 0.054 µM and 0.0282 µM
SW-620 colon
  GI50: 0.0472 µM and 0.0708 µM
  TGI: 50 µM and > 100 µM
OVCAR-5 ovarian
  GI50: 1.31 µM and 4.2 µM
  TGI: 50 µM and > 100 µM
ACHN renal
  GI50: 0.18 µM and 0.0804 µM
  TGI: 50 µM and > 100 µM
SK-MEL-28 melanoma
  GI50: 0.167 µM
  TGI: 5.61 µM
SK-OV-3 ovarian
  TGI: > 100 µM
RPMI-8226 leukemia
  GI50: 0.0172 µM and 0.026 µM
  TGI: 0.0402 µM and 0.0528 µM
OVCAR-8 ovarian
  GI50: 0.0447 µM and 0.0501 µM
  TGI: 50 µM and > 100 µM
HCT-116 colon
  GI50: 0.0387 µM and 0.0618 µM
  TGI: 50 µM and > 100 µM
OVCAR-4 ovarian
  GI50: > 50 µM and 6.98 µM
  TGI: > 100 µM
A498 renal
  TGI: 50 µM and > 100 µM
NCI-H322M lung
  GI50: > 100 µM
  TGI: > 100 µM
NCI-H522 lung
  GI50: 0.3 µM and 0.327 µM
COLO 205 colon
  GI50: 0.0379 µM and 0.0306 µM
UACC-62 melanoma
  GI50: 0.35 µM and 0.445 µM
  TGI: 50 µM and > 100 µM
A549 NSCLC
  GI50: 0.355 µM and 0.294 µM
  TGI: 50 µM and > 100 µM
HOP-92 NSCLC
  GI50: > 100 µM
  TGI: > 100 µM
NCI/ADR-RES ovarian
  GI50: 0.267 µM and 0.151 µM
  TGI: 50 µM and > 100 µM
EKVX NSCLC
  TGI: > 100 µM
SNB-19 CNS
  GI50: 1.03 µM and 3.66 µM
  TGI: 50 µM and > 100 µM
SK-MEL-5 melanoma
  TGI: > 100 µM
HCC-2998 colon
  GI50: 0.0405 µM and 0.024 µM
  TGI: 50 µM and > 100 µM
M14 melanoma
  GI50: 0.105 µM and 0.0561 µM
SN12C renal
  GI50: 0.0458 µM and 0.0366 µM
HCT-15 colon
  GI50: 1.16 µM and 0.506 µM
  TGI: 50 µM and > 100 µM
